How the values were obtained:
[1] = molecular target: PHD2 enzyme (residues 181-417) (Homo sapiens (Human), UniProt Q9GZT9); assay: Inhibition of PHD enzyme (LC/MS peptide hydroxylation assay); assay type: biochemical; settings: PHD2 (residues 181-417) 5 nM, 60 min pre-incubation; -log(IC50), IC50 molar
Procedure, shortened: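 Hydroxylated peptide quantified by LC/MS after 60 min turnover of 1 uM biotinylated peptide with 2 uM 2-oxoglutarate and 1 mM ascorbate, stopped by excess tight-binding inhibitor. Beforehand, 5 nM enzyme and compound were preincubated 60 min at RT, pH 7.3 HEPES/KCl/TCEP/FeCl2/BSA buffer. Values as pIC50 (−log molar IC50).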

[2] = tested on: HIF1a protein in H9c2 rat cardiomyocytes; assay: Cell-based HIF-alpha stabilization assay (inhibition of PHD in cells); settings: Rattus norvegicus, H9c2, 24 h, 24 hrs compound incubation, HIF1a protein by ELISA, read-out: Inhibition of PHD in cells (pEC50) (converted)
Procedure, shortened: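 HIF1a stabilization was measured by ELISA on lysates of H9c2 rat cardiomyocytes after 24 h exposure to 11 serial compound concentrations, expressed relative to the desferrioxamine maximum. Curve fits gave EC50. EC50pos denotes the concentration producing half the desferrioxamine maximal response.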

Sprague Dawley rats = assay: In vivo cardioprotection assay, Langendorff global ischemia/reperfusion, rats; settings: oral, 5 mg/kg, 30 min global ischemia, 90 min reperfusion
Procedure: (§1) Example C In Vivo Cardioprotection Assay
(§2) PHD inhibitor or vehicle was administered orally to 8-week old male C57 mice or Sprague Dawley rats. Four hours after dosing, hearts were removed quickly and perfused in a retrograde manner with modified Krebs-Henseleit buffer in a Langendorff apparatus at constant pressure (80 mmHg). To measure infarct size, hearts were first perfused for 20 min to reach equilibrium and then subjected to a 30-minute global ischemia (no-flow) period followed by a 60-min reperfusion period in mice or 90-min reperfusion in rats. The ventricles were cut transversely into 5 sections. The slices were stained 1% 2,3,5-triphenyl tetrazolium chloride (TTC) and scanned to measure the infarct area and the total area. Cardiac injury was assessed by measuring lactate dehydrogenase (LDH) release to coronary effluent during the 60-min reperfusion period (in mice only). The amount of LDH release was determined using an LDH activity assay kit (MBL International Corp.) as expressed as % of vehicle treated hearts.

VEGF = assay: Heart gene changes for vascular endothelial growth factor (VEGF), qRT-PCR; assay type: in vivo, mice; settings: 60 mg/kg; for VEGF % Increase Compared to Control: male C57BL/6 mice, oral, heart, 2 h after dosing
Procedure: Example D Determination of Heart Gene Changes for Vascular Endothelial Growth Factor (VEGF)
PHD inhibitor or vehicle were administered orally to male C57BL/6 in groups of four. The compounds were formulated in 30% hydroxypropyl beta-cyclodextrin in 50 mM Sodium Phosphate pH7.4 at doses of 30 mg/kg and 60 mg/kg. Two hours after dosing the mice were euthanized by CO2 and the hearts were removed quickly, sectioned into 2 pieces; the lower (apical) section was snap frozen and stored at −80° C. and analyzed for VEGF gene changes applying qRT-PCR and using Life Technologies #4392938 and an RNA extraction protocol using Qiagen #74881 RNeasy 96 Universal Tissue Kit. Standards are made from RNA from combined vehicle treated animals at a concentration of 100 μg/mL, a 7 point curve is made with 1:4 dilutions and a blank. Samples are run on using RNA-to-CT 1-Step method using a StepOnePlus Real-Time PCR System from Applied Biosystems Relative quantitation is expressed by dividing the quantity of VEGF by the quantity of the reference gene. Treatment groups and vehicle control were combined and averaged.

C57 mice = assay: In vivo cardioprotection assay, Langendorff global ischemia/reperfusion, mice; settings: oral, 60 min reperfusion; for reduced area of the infarct compared to vehicle control: 4 h after dosing, 30 min global ischemia
Procedure: as §1, §2

PHD2 enzyme (residues 181-417), sequence (Q9GZT9 181-417): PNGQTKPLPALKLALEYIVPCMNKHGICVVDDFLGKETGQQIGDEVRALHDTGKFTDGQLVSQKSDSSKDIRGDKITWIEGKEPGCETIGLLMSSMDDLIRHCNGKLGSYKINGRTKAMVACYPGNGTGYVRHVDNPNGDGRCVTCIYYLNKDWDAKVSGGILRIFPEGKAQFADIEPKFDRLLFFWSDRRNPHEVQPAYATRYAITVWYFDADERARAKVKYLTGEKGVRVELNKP

| SMILES | PHD Inhibition (pIC50) [1] | EC50 [2] | also measured |
| --- | --- | --- | --- |
| CCN1CCN(C(=O)c2ccc(-n3ncc(-c4ccc(C#N)cc4C)c3O)nc2)CC1 [Example 282, 4-(1-(5-(4-ethylpiperazine-1-carbonyl)pyridin-2-yl)-5-hydroxy-1H-pyrazol-4-yl)-3-methylbenzonitrile] | 8.00 | 0.575 µM | reduced area of the infarct (Sprague Dawley rats): 30%; greater VEGF mRNA production compared to the compound of Example R1 (VEGF; mouse heart): 2 fold; VEGF % Increase Compared to Control (VEGF): 203.1%; reduction of LDH released to the coronary effluent (C57 mice; 10 mg/kg): 51%; reduced area of the infarct compared to vehicle control (C57 mice; 10 mg/kg): 50%; reduction of LDH released to the coronary effluent (C57 mice; 30 mg/kg): 56%; reduced area of the infarct compared to vehicle control (C57 mice; 30 mg/kg): 59% |
| Cc1cc(C#N)ccc1-c1cnn(-c2ccc(C(=O)N3CCN4CCC3CC4)cn2)c1O [Example 428, (S)-4-(1-(5-(1,4-diazabicyclo[3.2.2]nonane-4-carbonyl)pyridin-2-yl)-5-hydroxy-1H-pyrazol-4-yl)-3-methylbenzonitrile] | 7.88 | 0.501 µM | – |
| CCN(C(=O)c1ccc(-n2ncc(-c3ccc(C#N)cc3C)c2O)nc1)C1CCN(C)CC1 [Example 429, 6-(4-(4-cyano-2-methylphenyl)-5-hydroxy-1H-pyrazol-1-yl)-N-ethyl-N-(1-methylpiperidin-4-yl)nicotinamide] | 7.95 | 0.589 µM | – |
| Cc1cc(-n2ncc(-c3ccc(C#N)cc3)c2O)ncc1C(=O)N1CCN(C)CC1 [Example 430, 4-(5-hydroxy-1-(4-methyl-5-(4-methylpiperazine-1-carbonyl)pyridin-2-yl)-1H-pyrazol-4-yl)benzonitrile] | 7.44 | 8.51 µM | – |
| Cc1cc(-n2ncc(-c3ccc(C#N)cc3)c2O)ncc1C(=O)N(C)C1CCN(C)CC1 [Example 431, 6-(4-(4-cyanophenyl)-5-hydroxy-1H-pyrazol-1-yl)-N,4-dimethyl-N-(1-methylpiperidin-4-yl)nicotinamide] | 7.31 | 2.75 µM | – |
| Cc1cc(C#N)ccc1-c1cnn(-c2ccc(C(=O)N(C)C3CN(C)C3)cn2)c1O [Example 432, 6-(4-(4-cyano-2-methylphenyl)-5-hydroxy-1H-pyrazol-1-yl)-N-methyl-N-(1-methylazetidin-3-yl)nicotinamide] | 8.02 | 0.741 µM | – |
| CCN1CCN(C(=O)c2ccc(-n3ncc(-c4cc(F)c(C#N)cc4C)c3O)nc2)[C@@H](C)C1 [Example 433, (S)-4-(1-(5-(4-ethyl-2-methylpiperazine-1-carbonyl)pyridin-2-yl)-5-hydroxy-1H-pyrazol-4-yl)-2-fluoro-5-methylbenzonitrile] | 8.20 | 0.363 µM | – |
| CCN1CCN(C(=O)c2ccc(-n3ncc(-c4ccc(C#N)cc4C)c3O)nc2)[C@H](C)C1 [Example 434, (R)-4-(1-(5-(4-ethyl-2-methylpiperazine-1-carbonyl)pyridin-2-yl)-5-hydroxy-1H-pyrazol-4-yl)-3-methylbenzonitrile] | 8.20 | 1.29 µM | – |
| CC(C)(C)NC(=O)c1ccc(-n2ncc(-c3cccnc3)c2O)nc1 [Example R1, N-tert-butyl-6-(5-oxo-4-pyridin-3-yl-2,5-dihydro-1H-pyrazol-1-yl)pyridine-3-carboxamide, reference compound] | – | 0.955 µM | VEGF % Increase Compared to Control (VEGF): 95.2% |
